Measurements from ChEMBL document CHEMBL1201862, “PubChem BioAssay data set” (2004).
Activity calls are given as the source filed them.

How the values were obtained:
[1] = target: G-protein coupled receptor 55 (Homo sapiens, UniProt Q9Y2T6); experiment: inhibition of LPI-stimulated GPR55 beta-arrestin translocation – imaging, U2OS, beta-arrestin-GFP, LPI agonist, primary screen (AID 2013); assay type: functional;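 further: antagonist potency measured as reduced agonist-driven arrestin aggregation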
Chain of G-protein coupled receptor 55 (Q9Y2T6 whole entry): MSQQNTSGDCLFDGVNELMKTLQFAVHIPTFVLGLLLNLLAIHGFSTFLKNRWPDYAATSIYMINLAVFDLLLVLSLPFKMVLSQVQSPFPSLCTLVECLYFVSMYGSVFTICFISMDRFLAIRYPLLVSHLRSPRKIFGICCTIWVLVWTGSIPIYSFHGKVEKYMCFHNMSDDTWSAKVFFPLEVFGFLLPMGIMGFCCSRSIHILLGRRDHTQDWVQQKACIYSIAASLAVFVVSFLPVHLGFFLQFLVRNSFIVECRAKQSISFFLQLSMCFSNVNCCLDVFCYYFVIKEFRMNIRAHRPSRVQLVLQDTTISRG

[2] = target: T1, Estrogen receptor (Homo sapiens, UniProt P03372);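 further: potency for inhibiting coactivator peptide recruitment to the receptor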
T1 sequence (P03372 whole entry): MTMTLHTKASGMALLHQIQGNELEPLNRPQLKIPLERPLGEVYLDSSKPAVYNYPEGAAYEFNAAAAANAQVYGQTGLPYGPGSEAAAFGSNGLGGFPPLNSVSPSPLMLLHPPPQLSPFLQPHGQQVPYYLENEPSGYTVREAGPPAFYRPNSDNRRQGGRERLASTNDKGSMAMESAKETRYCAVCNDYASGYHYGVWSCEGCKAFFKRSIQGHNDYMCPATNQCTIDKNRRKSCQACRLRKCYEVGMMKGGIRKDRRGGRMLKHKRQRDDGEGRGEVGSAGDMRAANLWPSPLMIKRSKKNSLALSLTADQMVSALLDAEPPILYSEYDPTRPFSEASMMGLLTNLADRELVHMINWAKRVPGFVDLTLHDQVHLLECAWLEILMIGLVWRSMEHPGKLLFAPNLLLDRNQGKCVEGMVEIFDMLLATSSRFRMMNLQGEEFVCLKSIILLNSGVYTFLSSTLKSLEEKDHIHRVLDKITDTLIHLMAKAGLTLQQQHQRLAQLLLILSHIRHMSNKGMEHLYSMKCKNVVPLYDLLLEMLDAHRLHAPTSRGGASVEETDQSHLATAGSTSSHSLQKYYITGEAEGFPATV

[3] = target: fMet-Leu-Phe receptor (Homo sapiens, UniProt P21462); experiment: formyl peptide receptor binders – dose response (AID 519); assay type: functional
[4] = target: T2, Mannose-6-phosphate isomerase (Homo sapiens, UniProt P34949); experiment: MPI enzyme activity inhibition – biochemical, fluorescence intensity, coupled assay, primary screen (AID 1209)
T2 sequence (P34949 whole entry): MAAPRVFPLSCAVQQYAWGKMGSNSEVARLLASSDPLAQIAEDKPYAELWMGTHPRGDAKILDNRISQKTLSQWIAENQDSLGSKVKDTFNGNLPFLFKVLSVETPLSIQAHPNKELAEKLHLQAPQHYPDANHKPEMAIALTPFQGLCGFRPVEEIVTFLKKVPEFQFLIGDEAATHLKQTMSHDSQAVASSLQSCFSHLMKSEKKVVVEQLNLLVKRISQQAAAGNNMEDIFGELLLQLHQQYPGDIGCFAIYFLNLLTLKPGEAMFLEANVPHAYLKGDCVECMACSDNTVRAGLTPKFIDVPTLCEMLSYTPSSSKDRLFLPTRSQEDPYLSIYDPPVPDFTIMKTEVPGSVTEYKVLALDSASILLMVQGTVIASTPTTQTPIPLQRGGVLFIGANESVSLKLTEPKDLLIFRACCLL

[5] = target: T2, Mannose-6-phosphate isomerase; experiment: MPI inhibition at elevated mannose 6-phosphate – biochemical, fluorescence intensity, high mannose 6-phosphate, primary screen (AID 1220)
[6] = target: Fructose-bisphosphate aldolase (Mycobacterium tuberculosis, UniProt P9WQA3); experiment: Fluorescence-based biochemical high throughput dose response assay for inhibitors of the fructose-bisphosphate aldolase (FBA) of M. tuberculosis.; assay type: functional
Chain of Fructose-bisphosphate aldolase (P9WQA3 whole entry): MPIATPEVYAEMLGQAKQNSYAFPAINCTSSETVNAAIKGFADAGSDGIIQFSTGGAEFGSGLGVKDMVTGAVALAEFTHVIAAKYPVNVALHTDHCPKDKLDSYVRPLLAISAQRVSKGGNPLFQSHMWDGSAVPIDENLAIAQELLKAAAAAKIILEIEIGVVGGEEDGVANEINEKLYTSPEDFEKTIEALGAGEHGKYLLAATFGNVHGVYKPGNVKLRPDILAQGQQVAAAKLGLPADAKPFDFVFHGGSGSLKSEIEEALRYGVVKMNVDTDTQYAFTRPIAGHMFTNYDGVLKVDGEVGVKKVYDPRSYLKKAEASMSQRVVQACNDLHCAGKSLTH

[7] = Trypanosoma cruzi growth suppression in host cells – NIH3T3 host cells, beta-gal luminescence, confirmation (AID 2044); assay type: functional, cell-based;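 further: intracellular parasites grown in NIH/3T3 mouse fibroblasts as host cells; luminescent beta-galactosidase reporter signal from transgenic T. cruzi replicating inside host cells; inhibitors lower the luminescence signal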
[8] = NIH3T3 cell viability loss – ATP luminescence, mouse fibroblasts, counter-screen, dose response (AID 2010); assay type: functional, cell-based;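 further: cells exposed to compound for about 90 hours before reading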
[9] = Luminescence Cell-Based Dose Retest to Confirm Inhibitors of Cancer Stem Cells. [Related pubchem assays (depositor defined):AID2717, AID2721]; assay type: functional; settings: Homo sapiens
[10] = potency of ADAM10 substrate cleavage blockers – biochemical, QFRET, dose response (AID 743254);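 further: ADAM10 enzyme with the DM2 quenched FRET peptide as substrate; EDANS fluorescence gain as the protease cuts the substrate; inhibitor potency against ADAM10 proteolytic activity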
[11] = target: Disintegrin and metalloproteinase domain-containing protein 17 (Homo sapiens, UniProt P78536); experiment: inhibition of ADAM17 substrate cleavage – biochemical, quenched FRET substrate, counter-screen for ADAM10 exosite inhibitor project, dose response (AID 743253)
Chain of Disintegrin and metalloproteinase domain-containing protein 17 (P78536 whole entry, the tested form may be a part): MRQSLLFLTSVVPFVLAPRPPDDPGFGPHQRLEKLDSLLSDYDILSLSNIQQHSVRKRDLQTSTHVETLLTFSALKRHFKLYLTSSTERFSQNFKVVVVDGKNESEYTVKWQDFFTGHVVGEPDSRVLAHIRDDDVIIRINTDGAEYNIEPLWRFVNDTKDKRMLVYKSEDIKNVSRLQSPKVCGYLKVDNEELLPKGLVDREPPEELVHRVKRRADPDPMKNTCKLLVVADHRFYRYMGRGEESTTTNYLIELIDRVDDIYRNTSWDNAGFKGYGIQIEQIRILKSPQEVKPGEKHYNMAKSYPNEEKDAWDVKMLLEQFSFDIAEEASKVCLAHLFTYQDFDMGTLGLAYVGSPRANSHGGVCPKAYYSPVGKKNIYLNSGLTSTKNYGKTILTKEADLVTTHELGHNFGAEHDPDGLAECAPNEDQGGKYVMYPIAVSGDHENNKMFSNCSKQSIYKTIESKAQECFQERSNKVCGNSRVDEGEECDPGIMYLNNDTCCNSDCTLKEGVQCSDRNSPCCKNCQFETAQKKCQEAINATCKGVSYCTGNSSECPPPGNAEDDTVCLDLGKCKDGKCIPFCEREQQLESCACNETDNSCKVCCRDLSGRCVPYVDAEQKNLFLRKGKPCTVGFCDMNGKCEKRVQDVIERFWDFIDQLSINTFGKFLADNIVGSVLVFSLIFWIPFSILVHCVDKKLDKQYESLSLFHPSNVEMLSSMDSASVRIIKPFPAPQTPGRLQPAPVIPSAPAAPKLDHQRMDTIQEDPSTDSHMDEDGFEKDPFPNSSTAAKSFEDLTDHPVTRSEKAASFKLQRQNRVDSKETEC

[12] = viability loss in THP-1 monocytes – THP-1 cells, cytotoxicity control for Vif-APOBEC3G degradation inhibitor project, dose response (AID 1117359); assay type: functional; settings: THP-1
[13] = target: T3, Caspase-6 (Homo sapiens, UniProt P55212); experiment: inhibition of CASP6 peptide cleavage – biochemical, VEID-R110 fluorescence, cherry-pick, dose response (AID 720632)
T3 sequence (P55212 whole entry): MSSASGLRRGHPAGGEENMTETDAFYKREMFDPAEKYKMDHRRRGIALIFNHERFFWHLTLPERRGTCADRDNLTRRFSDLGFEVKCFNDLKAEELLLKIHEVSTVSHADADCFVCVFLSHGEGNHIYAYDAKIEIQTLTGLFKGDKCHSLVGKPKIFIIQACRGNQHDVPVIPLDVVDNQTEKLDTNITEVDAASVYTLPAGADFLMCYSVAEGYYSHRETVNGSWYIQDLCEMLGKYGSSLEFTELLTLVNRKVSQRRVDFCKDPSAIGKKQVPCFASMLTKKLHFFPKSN

[14] = target: T4, Caspase-7 (Homo sapiens, UniProt P55210); experiment: caspase-7 enzyme inhibition, selectivity check – biochemical, DEVD-R110 fluorescence, cherry-pick, selectivity assay for caspase-6 inhibitor project, dose response (AID 743295); assay type: functional
T4 sequence (P55210 whole entry): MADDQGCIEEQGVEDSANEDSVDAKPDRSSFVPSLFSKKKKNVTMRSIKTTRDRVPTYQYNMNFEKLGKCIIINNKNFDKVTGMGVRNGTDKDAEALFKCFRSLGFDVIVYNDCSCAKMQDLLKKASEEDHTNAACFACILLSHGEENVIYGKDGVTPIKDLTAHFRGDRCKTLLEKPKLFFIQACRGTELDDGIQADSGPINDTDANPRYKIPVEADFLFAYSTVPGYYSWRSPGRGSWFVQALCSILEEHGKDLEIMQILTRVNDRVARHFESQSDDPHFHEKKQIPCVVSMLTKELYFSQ

[15] = target: Caspase-8 (Homo sapiens, UniProt Q14790); experiment: inhibitors of purified CASP8 protease – biochemical, Z-IETD-R110 fluorescence, cherry-picked samples, selectivity assay for caspase-6 inhibitor project, dose response (AID 743294)
Chain of Caspase-8 (Q14790 217-374 limits assumed): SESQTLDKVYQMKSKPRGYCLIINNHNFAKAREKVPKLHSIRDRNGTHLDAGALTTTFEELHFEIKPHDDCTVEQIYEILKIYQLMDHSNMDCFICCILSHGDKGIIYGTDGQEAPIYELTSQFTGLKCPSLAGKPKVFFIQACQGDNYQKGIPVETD
Chain of Caspase-8 (Q14790 385-479 limits assumed): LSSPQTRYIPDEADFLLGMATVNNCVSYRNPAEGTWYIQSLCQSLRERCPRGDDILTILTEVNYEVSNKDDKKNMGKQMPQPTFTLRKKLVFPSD

[16] = target: T5, Protein Tat (Human immunodeficiency virus type 1 group M subtype B (isolate HXB2)(HIV-1), UniProt P04608); assay type: functional;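 further: tat binding to TAR RNA read out by fluorescence polarization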
T5 sequence (P04608 whole entry): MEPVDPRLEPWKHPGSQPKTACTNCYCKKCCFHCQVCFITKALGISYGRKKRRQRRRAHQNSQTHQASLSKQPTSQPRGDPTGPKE

[17] = NIH-3T3 fibroblast cytotoxicity, dose response, cytotoxicity control, cell-based, fluorescence, Alamar Blue, secondary assay (AID 2327); assay type: functional;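 further: NIH-3T3 mouse fibroblasts cultured with fluconazole at 8 µg/mL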
[18] = fluconazole-exposed Candida albicans growth modulators – fluorescence, retest, confirmation (AID 2467); assay type: functional, cell-based
[19] = target: Albumin (Bos taurus, UniProt P02769); experiment: Counterscreen for inhibitors of T-cell receptor (TCR)-CD3 interaction: Fluorescence-based biochemical high throughput dose response assay to identify inhibitors of T-cell receptor (TCR)-CD3 interaction using a TAMRA-labeled BSA probe.; assay type: functional
[20] = target: T6, Neuropeptides B/W receptor type 1 (Homo sapiens, UniProt P48145); experiment: Fluorescence-based dose response cell-based high throughput screening assay to identify antagonists of the G-protein coupled receptor 7 (GPR7). [Related pubchem assays: 1952 (Screening assay (GPR7 antagonists).), 1880 (Summary AID.)]; assay type: functional
T6 sequence (P48145 whole entry): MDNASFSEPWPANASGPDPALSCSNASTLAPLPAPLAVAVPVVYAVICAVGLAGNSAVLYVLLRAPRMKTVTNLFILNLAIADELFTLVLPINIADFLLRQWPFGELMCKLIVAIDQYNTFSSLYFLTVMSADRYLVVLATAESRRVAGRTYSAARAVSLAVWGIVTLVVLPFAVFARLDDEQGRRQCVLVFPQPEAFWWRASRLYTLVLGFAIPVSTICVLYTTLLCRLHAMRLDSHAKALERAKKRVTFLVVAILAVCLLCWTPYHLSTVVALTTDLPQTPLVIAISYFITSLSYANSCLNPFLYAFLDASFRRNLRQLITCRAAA

[21] = target: Melanin-concentrating hormone receptor 1 (Homo sapiens, UniProt Q99705); experiment: Fluorescence-based counterscreen for antagonists of the G-protein coupled receptor 7 (GPR7): cell-based high throughput dose response assay to identify antagonists of the melanin-concentrating hormone receptor 1 (MCHR1).; assay type: functional
Chain of Melanin-concentrating hormone receptor 1 (Q99705 whole entry): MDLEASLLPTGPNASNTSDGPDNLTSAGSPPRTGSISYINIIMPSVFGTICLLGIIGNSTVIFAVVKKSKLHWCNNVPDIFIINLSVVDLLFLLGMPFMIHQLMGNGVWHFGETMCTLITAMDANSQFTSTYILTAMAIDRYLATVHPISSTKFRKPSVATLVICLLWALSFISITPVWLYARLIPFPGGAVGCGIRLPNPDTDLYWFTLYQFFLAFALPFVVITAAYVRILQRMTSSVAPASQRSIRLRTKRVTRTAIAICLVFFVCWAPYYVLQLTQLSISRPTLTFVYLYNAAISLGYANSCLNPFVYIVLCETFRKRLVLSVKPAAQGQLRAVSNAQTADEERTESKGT

[22] = target: Vascular endothelial growth factor receptor 2 (Homo sapiens, UniProt P35968); assay type: functional
Chain of Vascular endothelial growth factor receptor 2 (P35968 whole entry): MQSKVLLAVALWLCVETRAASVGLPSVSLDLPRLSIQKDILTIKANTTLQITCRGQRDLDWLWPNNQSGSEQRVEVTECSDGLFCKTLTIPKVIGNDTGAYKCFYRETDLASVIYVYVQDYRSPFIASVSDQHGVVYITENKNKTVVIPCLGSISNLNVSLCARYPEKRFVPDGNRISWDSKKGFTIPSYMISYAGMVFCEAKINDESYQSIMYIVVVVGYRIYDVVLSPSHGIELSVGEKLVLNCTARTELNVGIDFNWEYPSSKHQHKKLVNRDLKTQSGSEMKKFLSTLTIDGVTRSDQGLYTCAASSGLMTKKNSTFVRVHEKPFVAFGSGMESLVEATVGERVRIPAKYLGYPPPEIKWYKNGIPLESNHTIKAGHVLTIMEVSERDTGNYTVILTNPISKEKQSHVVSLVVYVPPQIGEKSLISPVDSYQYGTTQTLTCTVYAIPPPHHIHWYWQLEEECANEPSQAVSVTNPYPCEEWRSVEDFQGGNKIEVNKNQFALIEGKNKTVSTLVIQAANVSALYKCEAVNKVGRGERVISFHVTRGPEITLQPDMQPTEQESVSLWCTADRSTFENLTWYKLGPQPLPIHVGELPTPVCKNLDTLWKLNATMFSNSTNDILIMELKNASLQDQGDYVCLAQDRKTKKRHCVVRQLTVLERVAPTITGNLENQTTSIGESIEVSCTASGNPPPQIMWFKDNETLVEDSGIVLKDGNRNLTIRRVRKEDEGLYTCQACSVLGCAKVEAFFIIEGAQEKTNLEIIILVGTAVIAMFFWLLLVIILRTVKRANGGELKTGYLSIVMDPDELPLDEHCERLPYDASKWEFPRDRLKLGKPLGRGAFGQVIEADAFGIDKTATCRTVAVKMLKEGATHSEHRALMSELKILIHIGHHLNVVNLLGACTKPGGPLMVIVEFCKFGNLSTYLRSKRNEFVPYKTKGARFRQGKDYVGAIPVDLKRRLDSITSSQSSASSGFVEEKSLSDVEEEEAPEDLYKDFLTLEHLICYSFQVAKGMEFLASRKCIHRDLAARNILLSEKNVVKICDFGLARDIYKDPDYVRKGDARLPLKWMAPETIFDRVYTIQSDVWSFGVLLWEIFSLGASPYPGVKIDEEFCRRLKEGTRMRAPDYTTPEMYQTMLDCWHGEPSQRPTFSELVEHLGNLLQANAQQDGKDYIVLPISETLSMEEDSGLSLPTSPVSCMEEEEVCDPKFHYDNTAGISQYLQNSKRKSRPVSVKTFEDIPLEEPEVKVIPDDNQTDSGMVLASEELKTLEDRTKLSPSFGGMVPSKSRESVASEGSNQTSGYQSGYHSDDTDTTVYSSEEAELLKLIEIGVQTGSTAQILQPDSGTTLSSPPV

[23] = target: Rho-associated protein kinase 1 (Homo sapiens, UniProt Q13464); assay type: functional;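 further: measured within a broad kinome-wide panel profiling many kinases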
Chain of Rho-associated protein kinase 1 (Q13464 whole entry): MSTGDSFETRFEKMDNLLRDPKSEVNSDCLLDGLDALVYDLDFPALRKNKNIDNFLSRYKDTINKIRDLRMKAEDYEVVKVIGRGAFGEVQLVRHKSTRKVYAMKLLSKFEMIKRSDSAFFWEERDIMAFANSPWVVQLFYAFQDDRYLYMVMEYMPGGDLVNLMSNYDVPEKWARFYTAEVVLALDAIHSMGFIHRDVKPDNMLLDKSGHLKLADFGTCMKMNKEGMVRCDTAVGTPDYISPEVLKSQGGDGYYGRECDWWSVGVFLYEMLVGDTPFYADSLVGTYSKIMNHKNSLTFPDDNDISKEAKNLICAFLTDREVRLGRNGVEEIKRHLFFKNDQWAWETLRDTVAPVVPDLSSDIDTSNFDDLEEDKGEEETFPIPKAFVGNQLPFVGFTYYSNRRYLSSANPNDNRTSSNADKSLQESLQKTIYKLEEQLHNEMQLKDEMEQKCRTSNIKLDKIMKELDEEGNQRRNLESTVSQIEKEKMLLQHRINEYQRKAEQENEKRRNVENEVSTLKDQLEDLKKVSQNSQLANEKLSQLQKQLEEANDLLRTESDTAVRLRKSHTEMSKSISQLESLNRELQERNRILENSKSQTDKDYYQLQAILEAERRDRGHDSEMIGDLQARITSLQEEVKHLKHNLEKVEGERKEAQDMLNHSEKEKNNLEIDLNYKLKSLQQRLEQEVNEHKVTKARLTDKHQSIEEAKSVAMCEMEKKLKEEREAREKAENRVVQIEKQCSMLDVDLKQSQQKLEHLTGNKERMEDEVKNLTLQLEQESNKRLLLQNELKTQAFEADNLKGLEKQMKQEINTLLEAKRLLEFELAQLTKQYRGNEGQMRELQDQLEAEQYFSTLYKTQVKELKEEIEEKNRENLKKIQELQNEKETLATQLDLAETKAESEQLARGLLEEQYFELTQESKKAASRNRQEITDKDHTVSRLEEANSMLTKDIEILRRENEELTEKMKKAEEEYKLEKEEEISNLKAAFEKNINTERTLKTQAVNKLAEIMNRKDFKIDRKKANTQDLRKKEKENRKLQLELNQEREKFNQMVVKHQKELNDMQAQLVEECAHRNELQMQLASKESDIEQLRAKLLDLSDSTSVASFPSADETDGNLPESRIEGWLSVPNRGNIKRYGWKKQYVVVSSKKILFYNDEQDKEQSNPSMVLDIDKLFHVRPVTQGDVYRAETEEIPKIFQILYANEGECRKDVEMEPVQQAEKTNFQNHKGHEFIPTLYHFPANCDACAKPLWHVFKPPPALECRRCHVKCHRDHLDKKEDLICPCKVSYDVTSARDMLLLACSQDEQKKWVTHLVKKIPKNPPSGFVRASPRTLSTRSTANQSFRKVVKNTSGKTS

[24] = Late stage assay provider results from the probe development effort to identify inhibitors of the Plasmodium falciparum M18 Aspartyl Aminopeptidase (M18AAP): radiolabel-based cell-based dose response assay to identify compounds that inhibit P. falciparum growth in RBCs, Set 2..; assay type: functional
[25] = T. cruzi growth inhibition in host cells, dose response, cell-based, plate reader, dry powder, set 2 (AID 652275); assay type: functional
[26] = MITF Orthogonal Assay: SK-MEL-5 CTG Assay Measured in Cell-Based System Using Plate Reader - 2084-02_Inhibitor_Dose_DryPowder_Activity_Set7.; assay type: functional
[27] = MITF: Counter assay: A375 proliferation Measured in Cell-Based System Using Plate Reader - 2084-03_Inhibitor_Dose_DryPowder_Activity_Set8.; assay type: functional; settings: A-375
[28] = THP-1 cell cytotoxicity, dose response, cytotoxicity control for non-replicating M. tuberculosis project (AID 489025); assay type: functional
[29] = Vero E6 cell cytotoxicity, dose response, cytotoxicity control for non-replicating M. tuberculosis project, secondary assay (AID 492998); assay type: functional, VeroE6; settings: Vero C1008
[30] = cells; assay type: functional
[31] = cells; assay type: functional, cell-based
[32] = target: T7, DNA repair protein RAD52 homolog (Homo sapiens, UniProt P43351); assay type: functional, biochemical
T7 sequence (P43351 whole entry): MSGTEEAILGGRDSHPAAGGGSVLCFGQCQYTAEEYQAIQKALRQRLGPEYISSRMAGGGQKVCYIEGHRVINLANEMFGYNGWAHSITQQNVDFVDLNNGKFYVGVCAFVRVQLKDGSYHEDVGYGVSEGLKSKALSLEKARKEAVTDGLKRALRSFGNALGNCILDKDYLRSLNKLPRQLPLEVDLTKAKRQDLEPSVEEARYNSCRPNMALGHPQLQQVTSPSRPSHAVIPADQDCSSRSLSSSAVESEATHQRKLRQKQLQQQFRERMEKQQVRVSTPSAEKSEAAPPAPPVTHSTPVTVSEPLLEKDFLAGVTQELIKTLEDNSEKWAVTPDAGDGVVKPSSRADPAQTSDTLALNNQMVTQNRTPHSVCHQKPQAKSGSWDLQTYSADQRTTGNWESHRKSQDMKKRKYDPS

[33] = cells; assay type: functional, cell-based; remark: listed apart in the source

CCCCn1c(NC(=O)CC)c(C#N)c2nc3ccccc3nc21
IC50 [1]: 1.55 µM (active)
IC50 [2]: 23.4 µM (active)
Ki [3]: 24.2 µM (inactive)

Cn1ncc2c(NNC(=O)c3ccc(Cl)cc3Cl)ncnc21
IC50 [4]: > 50 µM (not active)
IC50 [5]: > 50 µM (not active)

COc1ccccc1N1C(=O)NC(=O)/C(=C/c2ccc3c4c(cccc24)CC3)C1=O
IC50 [6]: 2.23 µM (active)

Cc1ccc(C)c(N(C(=O)c2snc(C(N)=O)c2N)C(C(=O)NCC2CCCO2)c2cccs2)c1 (configuration not stated)
IC50 [6]: > 1.11 µM (active)

OC(COCC(F)(F)C(F)(F)C(F)(F)C(F)F)Cn1c2ccccc2c2ccccc21 (configuration not stated)
EC50 [7]: 1.71 µM (active)
EC50 [8]: > 60 µM (inconclusive)
AC50 [9]: 2.9 µM (active)
IC50 [10]: > 7.73 µM (active)
IC50 [11]: > 69.5 µM (inactive)

CC(=O)NN1C(=O)/C(=C\c2ccc(Br)o2)SC1=S
CC50 [12]: > 40 µM (active)

COc1ccc(NC(=O)CN(C)C(=O)c2cccc(-n3cccc3)c2)cc1
AC50 [13]: 4.5 µM (active)
AC50 [14]: > 70 µM (inactive)
AC50 [15]: 61.2 µM (active)
IC50 [16]: > 100 µM (active)

Cc1ccc(C(=O)NNC(=O)c2cc3ccccc3cc2O)cc1
EC50 [17]: > 160 µM (inactive)
EC50 [18]: 3.16 µM (active)
IC50 [19]: > 94.1 µM (inactive)

CN(C(=O)CN1C(=O)C2C3CC(C(Br)C3Br)C2C1=O)C1CCCCC1 (configuration not stated)
IC50 [20]: 13.4 µM (not active)
IC50 [21]: > 43.8 µM (not active)

C=CCC[C@H](Cc1ccc(F)cc1)C(=O)OC[C@@H](Cc1c[nH]c2ccccc12)NC(=O)[C@@H](CC=C)CC(=O)N(CCO)Cc1ccccc1
AC50 [9]: 4.62 µM (active)
IC50 [10]: > 69.5 µM (inactive)
IC50 [11]: > 69.5 µM (inactive)

Oc1cc(O)cc(C=Cc2ccc(O)c(O)c2)c1
Ki [22]: > 2.51 µM (inactive)
Ki [23]: 2.51 µM (active)
AC50 [13]: 1.2 µM (active)
AC50 [14]: > 70 µM (inactive)
AC50 [15]: > 70 µM (inactive)

Oc1cccc(CCNc2ccnc3ccccc23)c1O
IC50 [24]: 2.7 µM (active)

CC(C)N1C[C@H](C)[C@@H](CN(C)Cc2ccc(Oc3ccccc3)cc2)Oc2c(cccc2-c2cn(-c3ccncc3)nn2)C1=O
AC50 [25]: 0.0204 µM (active)

Cc1cccc(-c2ccc([C@H]3[C@H](CO)N4CCCCN(C(=O)c5ccncc5)C[C@@H]34)cc2)c1
AC50 [25]: 2.46 µM (active)

O=C1C=C(Nc2ccc3ccccc3c2)C(=O)c2ccccc21
AC50 [26]: 1.65 µM (active)
AC50 [27]: 49.4 µM (active)

NCCNc1c2ccccc2nc2ccccc12
IC50 [24]: 0.5 µM (active)

Cc1cc(N/N=C/c2ccccc2O)c2ccccc2n1
CC50 [28]: 25.6 µM (active)
CC50 [29]: 17.6 µM (active)
IC50 [30]: 7.92 µM (active)
IC50 [31]: > 29.9 µM (inactive)
AC50 [32]: 5.36 µM (active)
EC50 [33]: > 29.9 µM (inactive)
